Experimental data reported in patent US20210317090A1, “AMINO ACID DEPLETION AGENTS AS ANTIPROLIFERATIVE AGENTS” (University of Central Florida Research Foundation, Inc., priority 2018, published 2021).
Where two headings read alike, the source gives them in different places.

Experiments:
[1] = test system: L3.6pl human pancreatic cancer cells; assay: Cytotoxicity dose-response (MTS) in L3.6pl cells; format: cell-based
Protocol: L3.6pl Studies. Compounds 9 and 10 were evaluated in the metastatic human pancreatic cancer cell line, L3.6pl. L3.6pl has a K-ras mutation, and high polyamine uptake activity.^7 A dose-response curve was obtained for each compound in L3.6pl cells to determine the 72 h L3.6pl IC50 value, described as the dose at which L3.6pl cells were 50% viable compared to the untreated control.
(§1) Regarding the biological studies performed in the following examples, it is noted that CHO K1, CHO-MG, and L3.6pl cells were grown in RPMI 1640 medium supplemented with 10% fetal bovine serum (FBS) and 1% penicillin/streptomycin. All cells were grown at 37° C. under a humidified 5% CO2 atmosphere. Aminoguanidine (1 mM used for CHO K1 and CHOMG cells and 250 μM for L3.6pl) was added to the growth medium to prevent oxidation of the compounds of the bovine serum amine oxidase enzyme that is present in calf serum. The cells used were in early to mid log phase and CHO and CHOMG were plated out at 1000 cells/well, whereas the L3.6pl cells were plated at 500 cells/well in a 96 well plate format.
(§2) This example illustrates aspects according to various embodiments pertaining to IC50 determinations and cell viability studies. Cell growth was assayed in sterile 96-well microtiter plates (Costar 3599, Corning, N.Y.). CHO K1 or CHOMG cells were plated at 1,000 cells/70 μL and L3.6pl cells at 500 cells/70 μL. The drug solutions of appropriate concentration in phosphate buffered saline (PBS) were added 10 μL per well after overnight incubation. After drug exposure (e.g., for 48 h for CHO K1 and CHO-MG and 48 h or 72 h for L3.6pl), cell growth was determined by measuring formazan formation from the 3-(4,5dimethylthiazol-2-yl)-5-(3-carboxymethoxyphenyl)-2-(4-sulfenyl)-2H tetrazolium, inner salt (MTS) using SynergyMx Biotek microplate reader for absorbance (490 nm) measurements.^27 All experiments were run in triplicate.

L3.6pl cells = assay: Ant-44 toxicity potentiation assay in L3.6pl cells; format: cell-based, human; details: Homo sapiens, Ant-44 2 μM, 72 h
Protocol: As performed previously with CHO K1 cells, L3.6pl cells were treated with compounds 9 (1666.177) and 10 (1666.255) and a fixed dose of Ant-44 to observe the potentiation effect. The 72 h IC50 dose of Ant-44 in L3.6pl cells was previously determined to be 4 μM. For this study, half that dose was used to replicate the large window used in the CHO experiments to look at reduction in cell viability. In a 96-well plate, L3.6pl cells were dosed with a fixed concentration of Ant-44 (2 μM) and increasing doses of compounds 9 (1666.177) and 10 (1666.255). Although both compounds were effective at reducing cell viability, higher doses were required compared to CHO K1 cells.
FIG. 6 is an example according to various embodiments, illustrating the ability of compounds 9 (1666.177) and 10 ([…]) to potentiate the effect of Ant-44 in L3.6pl cells. Cells were incubated for 72 h at 37° C. with the respective compound and Ant-44 (2 μM). A 250 μM AG solution was incubated with the cells for 24 h prior to addition of compounds. […] Both compounds are nontoxic at the second highest concentration tested (1 μM).

CHO K1 cells [2] = assay: Cytotoxicity dose-response (MTS cell viability) in CHO K1 cells; format: cell-based, Chinese hamster; details: 48 h
Protocol: CHO K1 Studies. Wild type Chinese hamster ovary (CHO K1) cells were chosen to first study the synthetic compounds' impact on polyamine metabolism. The CHO K1 cell line has high polyamine transport activity and was useful in screening compounds for their polyamine transport inhibitor activity. A dose-response curve was obtained for each compound to determine their toxicity in CHO K1 cells after 48 h incubation. Compound 9 (1666.177) was non-toxic up to the highest dose tested (15 μM).
as §1, §2

CHO K1 cells [3] = assay: cells; format: cell-based, Chinese hamster; details: Cricetulus griseus, Ant-44 0.5 μM
Protocol: Various embodiments involve the concept that a non-toxic PTI agent would inhibit the uptake of the cytotoxic polyamine conjugate Ant-44 (11) and rescue cells from Ant-44 induced toxicity. For example, using the IC50 dose of Ant-44, PTIs could be identified by measuring a compound's ability to block Ant-44 entry and rescue cells back to >90% viability. […] This toxic dose of Ant-44 was kept constant throughout the assay, while the candidate PTI compound was added in increasing concentrations up to its MTD.
Compounds (9 and 10) were tested at 5 μM and 7 μM. CHO K1 cells were treated in a 96-well plate with a toxic dose of Ant-44 (2.4 μM) alone and dosed with the candidate compounds (at 5 μM and 7 μM) and incubated for 48 h at 37° C.
To further explore this effect, development of various embodiments included modifying an original screen to use a lower dose of Ant-44 (0.5 μM) to improve the dose range of 9 and 10 that could be tested. In this regard, Ant-44 was dosed at 0.5 μM alone and in combination with increasing doses of compounds 9 (1666.177) and 10 (1666.255) and the CHO K1 cells were incubated for 48 h at 37° C., and the results are shown in FIG. 5. The red line represents the % cell viability of the Ant-44 only control. The Ant44 potentiation assay EC50 value is defined as the concentration of the candidate compound required to decrease the cell viability to half that of the Ant-44 only control. Both compounds 9 and 10 were effective at decreasing cell viability, when used in combination with Ant-44 in a dose dependent fashion.
FIG. 5 is an example according to various embodiments, illustrating potentiation of Ant-44 toxicity by compounds 9 and 10 in CHO K1 cells. Cells were incubated for 48 h at 37° C. with the respective compound and a fixed concentration of cytotoxic Ant-44 (0.5 μM). A 1 mM AG solution was incubated with the CHO K1 cells for 24 h prior to the addition of candidate compound. This was necessary to protect Ant-44 from the amine oxidases present in the media containing fetal bovine serum. […] Both compounds are nontoxic at the highest concentration tested (5 μM).

CHO K1 cells [4] = details: previously determined (ref 7), read-out: 48 h IC50; cited from earlier work
LAT-1 [5] = molecular target: T1, LAT-1 (Homo sapiens, UniProt Q01650); assay: 3H-Leucine efflux assay; format: cell-based; details: L3.6pl, 2 min; JPH-203 30 μM or compound 10 20 μM
T1 construct: endogenous in cells; host or cells: L3.6pl human pancreatic cancer cells
T1 sequence (Q01650 whole entry): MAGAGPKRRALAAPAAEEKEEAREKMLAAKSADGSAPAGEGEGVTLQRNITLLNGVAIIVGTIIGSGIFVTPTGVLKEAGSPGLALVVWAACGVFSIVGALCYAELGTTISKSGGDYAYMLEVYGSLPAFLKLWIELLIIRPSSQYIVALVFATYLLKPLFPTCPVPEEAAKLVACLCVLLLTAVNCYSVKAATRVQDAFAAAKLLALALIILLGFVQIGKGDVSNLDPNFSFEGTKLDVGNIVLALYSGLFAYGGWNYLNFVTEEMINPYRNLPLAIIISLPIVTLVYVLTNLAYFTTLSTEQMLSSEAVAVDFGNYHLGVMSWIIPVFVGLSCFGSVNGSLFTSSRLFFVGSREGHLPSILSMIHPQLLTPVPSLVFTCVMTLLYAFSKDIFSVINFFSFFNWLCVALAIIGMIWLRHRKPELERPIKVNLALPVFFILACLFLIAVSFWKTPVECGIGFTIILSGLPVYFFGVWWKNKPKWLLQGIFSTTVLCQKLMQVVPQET
T1 sequence (P08195 102-630 partner): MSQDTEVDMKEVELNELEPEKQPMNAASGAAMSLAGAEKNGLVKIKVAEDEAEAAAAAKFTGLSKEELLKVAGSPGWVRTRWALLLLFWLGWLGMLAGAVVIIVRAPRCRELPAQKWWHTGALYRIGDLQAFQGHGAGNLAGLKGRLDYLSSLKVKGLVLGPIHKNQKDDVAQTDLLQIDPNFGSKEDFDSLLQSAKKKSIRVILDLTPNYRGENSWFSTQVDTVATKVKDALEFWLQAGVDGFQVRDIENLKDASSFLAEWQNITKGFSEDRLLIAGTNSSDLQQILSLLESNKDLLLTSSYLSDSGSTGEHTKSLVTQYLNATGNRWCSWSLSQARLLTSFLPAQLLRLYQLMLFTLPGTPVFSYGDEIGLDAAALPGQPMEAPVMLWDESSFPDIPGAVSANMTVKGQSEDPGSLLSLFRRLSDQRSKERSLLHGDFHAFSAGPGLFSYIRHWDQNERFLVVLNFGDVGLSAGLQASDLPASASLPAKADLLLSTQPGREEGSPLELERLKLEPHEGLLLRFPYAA
Excerpt: JPH203 is not toxic to L3.6pl cells over this concentration range and time interval. FIG. 10E is an example according to various embodiments, illustrating results obtained for a Leu uptake inhibition experiment with compound 10. Note: the y-axis in FIG. 10E is in CPM per ug of protein to normalize the data and account for any potential losses of cells due to toxicity of compound 10. FIG. 10F is an example according to various embodiments, illustrating results obtained for a Leucine efflux experiment with LAT-1 inhibitor JPH-203. Briefly, the efflux procedure involved cells pre-incubated with ‘hot’ leucine (3H labeled) and washed to remove unbound radiolabeled Leucine. The cells were then incubated in the presence and absence of unlabeled Leucine (100 μM) and/or the LAT-1 inhibitor JPH-203 (30 μM). In the presence of unlabeled leucine, the cells released ‘hot’ 3H-leucine into the media which was measured via scintillation/radioactivity counts. This efflux or release from within the cell was inhibited by the presence of the LAT-1 inhibitor, JPH-203 (30 μM, FIG. 10F). Since JPH203 inhibits the import of unlabeled leucine then less unlabeled Leucine will enter the cell and less efflux of radiolabeled Leucine molecules from inside the cell will be observed. This is consistent with JPH-203 being a LAT-1 inhibitor. FIG. 10G is an example according to various embodiments, illustrating results obtained for a two minute Leucine efflux experiment with compound 10. Cells were pre-incubated with ‘hot’ leucine (^3H labeled) and washed to remove unbound radiolabeled Leucine. The cells were then incubated in the presence and absence of unlabeled “cold” Leucine (100 μM) and/or the compound 10 (20 μM). In the presence of unlabeled ‘cold’ leucine, the cells released ‘hot’ ^3H-leucine into the media which was measured via scintillation/radioactivity counting. […] The efflux experiment was repeated and the time for monitoring efflux increased to 30 minutes. […] In summary, compound 10 inhibits Leucine uptake and facilitates LAT-1 mediated efflux.
^3H-Leucine Efflux Assay ^3H-Leucine efflux experiments were performed according to the protocol developed by Hälfliger et al. (2018) (referenced below) with the following changes. Briefly, cells were preloaded with 12 μM stock of L-[^3H]leucine (79 Ci/mmol) to give a final concentration of ^3H-leucine was 1.2 μM in each well. […] The medium was then collected and mixed with scintillation fluid (Scintiverse™ BD Cocktail) and radioactivity measured (Beckman Coulter LS 6500 Multi-Purpose Scintillation Counter). […] The lysate (300 μL) was mixed with scintillation fluid and radioactivity was counted. Relative efflux was expressed as percentage radioactivity=100%×(radioactivity of medium)/(radioactivity of the medium+radioactivity of the cells). […]

LAT-1 [6] = molecular target: T1, LAT-1; assay: 3H-Leucine uptake assay; format: cell-based; details: L3.6pl cells, increasing concentration, 15 min uptake (FIG. 10D, 10E)
Protocol: ^3H-Leucine uptake experiments were performed according to the protocol developed by Hälfliger et al. (2018) (referenced below with the following changes. Briefly, cells were seeded at 60% confluency in a 24-well plate and incubated for 4 h at 37° C. After 4 hours, different concentrations of compound 10 were added and the cells were then incubated overnight. L-^3H-leucine uptake inhibition was measured for 15 minutes using a 12 μM stock of L-[^3H]leucine (79 Ci/mmol). The final concentration of ^3H-leucine in each well was 1.2 uM. This concentration produced a CPM reading of ˜4000 cpm for the control. Uptake was terminated by removing the buffer solution followed by washing the cells with cold Na^+-free Hank's Balanced Salt Solution. Cells were then lysed to give ˜500 μL of cell lysate. A portion of the cell lysate (200 μL) was mixed with Scintiverse™ BD Cocktail for determining radiocounts. The radioactivity was measured with a scintillation counter (Beckman Coulter LS 6500 Multi-Purpose Scintillation Counter). Another portion of the cell lysate (300 μL) was used for protein determination using the BCA method. The final data was expressed as cpm/microgram of protein to account for the different number of cells remaining after the experiment. This was necessary because compound 10 was toxic and less cells were present after the overnight incubation (24 h). […]

**Q.** What does the source list for `CC(C)(C)CCN1CCN(C(CNCc2ccccc2)Cc2ccccc2)CC1Cc1ccccc1.Cl.Cl.Cl` (stereo not drawn) [Compound 9, Benzyl-{2-[3-benzyl-4-(3,3-dimethyl-butyl)-piperazin-1-yl]-3-phenyl-propyl}-amine trihydrochloride salt]?
**A.** IC50 ([1]; Homo sapiens, L3.6pl cells, 72 h, read-out: 72 h IC50): 11.7 ± 0.9 µM; toxicity of compound alone ([1]; L3.6pl, second highest concentration tested (1 μM), 72 h): nontoxic; EC50 (L3.6pl cells): 3.27 ± 0.17 µM; toxicity of compound alone (CHO K1 cells [2]; CHO K1, highest concentration tested (5 μM)): nontoxic; toxicity (dose-response curve) (CHO K1 cells [2]; CHO K1 cells, up to the highest dose tested (15 μM)): non-toxic; EC50 (CHO K1 cells [3]; CHO K1 cells, 48 h (FIG. 5), read-out: Ant-44 potentiation EC50): 0.75 µM; EC50 (CHO K1 cells [3]; CHO cells, 48 h, read-out: Ant44 potentiation assay EC50): 0.75 µM

**Q.** With `NCCC[C@](N)(C(=O)O)C(F)F` [DFMO, α-difluoromethylornithine] as the compound, how does the IC50 (CHO K1 cells [4]) read?
**A.** The IC50 was 4200 µM.

**Q.** Which results are given for `Nc1cc(COc2c(Cl)cc(C[C@H](N)C(=O)O)cc2Cl)c2oc(-c3ccccc3)nc2c1` [JPH-203, reference compound]?
**A.** toxicity to L3.6pl cells ([1]; over the concentration range and time interval of the uptake experiment): not toxic; 3H-leucine efflux stimulated by unlabeled Leucine (100 μM) (LAT-1 [5]): inhibited; 3H-leucine efflux, compound alone (LAT-1 [5]): modestly stimulated efflux; 3H-Leucine uptake (LAT-1 [6]): dose dependent decrease in 3H-Leucine uptake
